Test results taken from PubChem BioAssay AID1963835 (Molecular Pharmacology Branch, DTP, NCI, 2024).
pIC50: −log10 of the molar value.

Test system: 699152-130-R-J1-PDC complex spheroid viability
Assay: Anticancer human tumor 699152-130-R-J1-PDC patient-derived pancreatic carcinoma cell line growth inhibition [POLQ]
Settings: for pIC50: curve of first compound; for viability, T/C: stronger effect = lower value
In short: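 PDC + HUVEC + MSC complex spheroids; POLQ inhibitors ± partner drugs; top conc. at/near clinical Cmax, else 10 microM (SN-38 1 microM), half-log dilutions; 37 degrees C, 5% CO2.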

[1] = second compound 0.0316 µM, first compound 0.0316 µM
[2] = second compound 0.0316 µM, first compound 0.1 µM
[3] = second compound 0.0316 µM, first compound 0.316 µM
[4] = second compound 0.0316 µM, first compound 1 µM
[5] = second compound 0.0316 µM, first compound 3.16 µM
[6] = second compound 0.0316 µM, first compound 10 µM
[7] = second compound 0.1 µM, first compound 0.0316 µM
[8] = second compound 0.1 µM, first compound 0.1 µM
[9] = second compound 0.1 µM, first compound 0.316 µM
[10] = second compound 0.1 µM, first compound 1 µM
[11] = second compound 0.1 µM, first compound 3.16 µM
[12] = second compound 0.1 µM, first compound 10 µM
[13] = second compound 0.316 µM, first compound 0.0316 µM
[14] = second compound 0.316 µM, first compound 0.1 µM
[15] = second compound 0.316 µM, first compound 0.316 µM
[16] = second compound 0.316 µM, first compound 1 µM
[17] = second compound 0.316 µM, first compound 3.16 µM
[18] = second compound 0.316 µM, first compound 10 µM
[19] = second compound 1 µM, first compound 0.0316 µM
[20] = second compound 1 µM, first compound 0.1 µM
[21] = second compound 1 µM, first compound 0.316 µM
[22] = second compound 1 µM, first compound 1 µM
[23] = second compound 1 µM, first compound 3.16 µM
[24] = second compound 1 µM, first compound 10 µM
[25] = second compound 3.16 µM, first compound 0.0316 µM
[26] = second compound 3.16 µM, first compound 0.1 µM
[27] = second compound 3.16 µM, first compound 0.316 µM
[28] = second compound 3.16 µM, first compound 1 µM
[29] = second compound 3.16 µM, first compound 3.16 µM
[30] = second compound 3.16 µM, first compound 10 µM
[31] = second compound 10 µM, first compound 0.0316 µM
[32] = second compound 10 µM, first compound 0.1 µM
[33] = second compound 10 µM, first compound 0.316 µM
[34] = second compound 10 µM, first compound 1 µM
[35] = second compound 10 µM, first compound 3.16 µM
[36] = second compound 10 µM, first compound 10 µM
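Further: spheroids exposed to agents for 7 days before viability reading.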
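Wherever viability, T/C is given: percent of DMSO vehicle control viability so 100% = vehicle and 0% = no viable signal.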

With `CC(=O)O[C@H]1C(=O)[C@@]2(C)[C@H]([C@H](OC(=O)c3ccccc3)[C@]3(O)C[C@H](OC(=O)[C@H](O)[C@@H](NC(=O)c4ccccc4)c4ccccc4)C(C)=C1C3(C)C)[C@]1(OC(C)=O)CO[C@@H]1C[C@@H]2O` + COC1C(OC(N)=O)C(O)C(Oc2ccc3c(O)c(NC(=O)c4ccc(O)c(CC=C(C)C)c4)c(=O)oc3c2C)OC1(C)C the pIC50 (second compound 0.0316 µM) was < 5.52, the pIC50 (second compound 0.1 µM) was < 5.52 and the pIC50 (second compound 0.316 µM) was < 5.52. The pIC50 (second compound 1 µM) was < 5.52, the pIC50 (second compound 3.16 µM) was < 5.52 and the pIC50 (second compound 10 µM) was < 5.52. The viability, T/C (second compound 0.0316 µM, first compound 0.00949 µM) was 81.5%, the viability, T/C (second compound 0.0316 µM, first compound 0.03 µM) was 57% and the viability, T/C (second compound 0.0316 µM, first compound 0.0949 µM) was 57.1%. For the same molecule, the viability, T/C (second compound 0.0316 µM, first compound 0.3 µM) was 60.7%, the viability, T/C (second compound 0.0316 µM, first compound 0.949 µM) was 70.2% and the viability, T/C (second compound 0.0316 µM, first compound 3 µM) was 63%. The viability, T/C (second compound 0.1 µM, first compound 0.00949 µM) was 87.9%, the viability, T/C (second compound 0.1 µM, first compound 0.03 µM) was 60.2% and the viability, T/C (second compound 0.1 µM, first compound 0.0949 µM) was 47.7%. It also gave a viability, T/C (second compound 0.1 µM, first compound 0.3 µM) of 62.5%, a viability, T/C (second compound 0.1 µM, first compound 0.949 µM) of 62.4% and a viability, T/C (second compound 0.1 µM, first compound 3 µM) of 74.5%. It also gave a viability, T/C (second compound 0.316 µM, first compound 0.00949 µM) of 90%, a viability, T/C (second compound 0.316 µM, first compound 0.03 µM) of 61.4% and a viability, T/C (second compound 0.316 µM, first compound 0.0949 µM) of 46.9%. It also gave a viability, T/C (second compound 0.316 µM, first compound 0.3 µM) of 53.2%, a viability, T/C (second compound 0.316 µM, first compound 0.949 µM) of 57.3% and a viability, T/C (second compound 0.316 µM, first compound 3 µM) of 58.1%. It also gave a viability, T/C (second compound 1 µM, first compound 0.00949 µM) of 77.2%, a viability, T/C (second compound 1 µM, first compound 0.03 µM) of 67.8% and a viability, T/C (second compound 1 µM, first compound 0.0949 µM) of 52.8%. For the same molecule, the viability, T/C (second compound 1 µM, first compound 0.3 µM) was 57.7%, the viability, T/C (second compound 1 µM, first compound 0.949 µM) was 66% and the viability, T/C (second compound 1 µM, first compound 3 µM) was 68.7%. It also gave a viability, T/C (second compound 3.16 µM, first compound 0.00949 µM) of 91.9%, a viability, T/C (second compound 3.16 µM, first compound 0.03 µM) of 68.9% and a viability, T/C (second compound 3.16 µM, first compound 0.0949 µM) of 62.4%. For the same molecule, the viability, T/C (second compound 3.16 µM, first compound 0.3 µM) was 55.5%, the viability, T/C (second compound 3.16 µM, first compound 0.949 µM) was 59.6% and the viability, T/C (second compound 3.16 µM, first compound 3 µM) was 73.1%. The viability, T/C (second compound 10 µM, first compound 0.00949 µM) was 84%, the viability, T/C (second compound 10 µM, first compound 0.03 µM) was 60.6% and the viability, T/C (second compound 10 µM, first compound 0.0949 µM) was 60.6%. For the same molecule, the viability, T/C (second compound 10 µM, first compound 0.3 µM) was 61.7%, the viability, T/C (second compound 10 µM, first compound 0.949 µM) was 73.1% and the viability, T/C (second compound 10 µM, first compound 3 µM) was 67.9%.

With `COc1ccc([C@@H](O)c2cc(-c3ncnc4cc(N5CCOCC5)ccc34)c(F)cc2Cl)nn1` + COC1C(OC(N)=O)C(O)C(Oc2ccc3c(O)c(NC(=O)c4ccc(O)c(CC=C(C)C)c4)c(=O)oc3c2C)OC1(C)C the pIC50 (second compound 0.0316 µM) was 5.42, the pIC50 (second compound 0.1 µM) was 5.38 and the pIC50 (second compound 0.316 µM) was 5.42. The pIC50 (second compound 1 µM) was 5.45, the pIC50 (second compound 3.16 µM) was 5.40 and the pIC50 (second compound 10 µM) was 5.37. The viability, T/C [1] was 94.5%, the viability, T/C [2] was 96.9% and the viability, T/C [3] was 85.6%. It also gave a viability, T/C [4] of 82.8%, a viability, T/C [5] of 53.9% and a viability, T/C [6] of 26.3%. The viability, T/C [7] was 112%, the viability, T/C [8] was 87% and the viability, T/C [9] was 87%. It also gave a viability, T/C [10] of 83%, a viability, T/C [11] of 56.1% and a viability, T/C [12] of 27.4%. The viability, T/C [13] was 113%, the viability, T/C [14] was 107% and the viability, T/C [15] was 92.2%. It also gave a viability, T/C [16] of 80.4%, a viability, T/C [17] of 54.7% and a viability, T/C [18] of 24%. The viability, T/C [19] was 118%, the viability, T/C [20] was 98.1% and the viability, T/C [21] was 96.9%. It also gave a viability, T/C [22] of 70.1%, a viability, T/C [23] of 58.5% and a viability, T/C [24] of 22.6%. For the same molecule, the viability, T/C [25] was 98.3%, the viability, T/C [26] was 108% and the viability, T/C [27] was 86.6%. The viability, T/C [28] was 88.7%, the viability, T/C [29] was 56.2% and the viability, T/C [30] was 21.6%. For the same molecule, the viability, T/C [31] was 101%, the viability, T/C [32] was 90.8% and the viability, T/C [33] was 90.9%. It also gave a viability, T/C [34] of 71.6%, a viability, T/C [35] of 60.6% and a viability, T/C [36] of 27.7%.

With `COc1cc2cc(C(=O)CCC(=O)O)sc2cc1OC` + Cc1cccc(N(C)C(=O)C2C(O)CCN2c2nc(C)cc(C(F)(F)F)c2C#N)c1 the pIC50 (second compound 0.0316 µM) was < 5.00, the pIC50 (second compound 0.1 µM) was < 5.00 and the pIC50 (second compound 0.316 µM) was < 5.00. For the same molecule, the pIC50 (second compound 1 µM) was < 5.00, the pIC50 (second compound 3.16 µM) was < 5.00 and the pIC50 (second compound 10 µM) was < 5.00. For the same molecule, the viability, T/C [1] was 99.4%, the viability, T/C [2] was 91.8% and the viability, T/C [3] was 92.6%. The viability, T/C [4] was 98.7%, the viability, T/C [5] was 110% and the viability, T/C [6] was 95.3%. For the same molecule, the viability, T/C [7] was 113%, the viability, T/C [8] was 108% and the viability, T/C [9] was 106%. It also gave a viability, T/C [10] of 90.3%, a viability, T/C [11] of 121% and a viability, T/C [12] of 93.2%. The viability, T/C [13] was 93%, the viability, T/C [14] was 105% and the viability, T/C [15] was 92.5%. It also gave a viability, T/C [16] of 102%, a viability, T/C [17] of 114% and a viability, T/C [18] of 94.9%. It also gave a viability, T/C [19] of 94.8%, a viability, T/C [20] of 99.4% and a viability, T/C [21] of 92.1%. For the same molecule, the viability, T/C [22] was 106%, the viability, T/C [23] was 107% and the viability, T/C [24] was 107%. It also gave a viability, T/C [25] of 102%, a viability, T/C [26] of 97.8% and a viability, T/C [27] of 104%. It also gave a viability, T/C [28] of 105%, a viability, T/C [29] of 89.1% and a viability, T/C [30] of 93.3%. It also gave a viability, T/C [31] of 92.2%, a viability, T/C [32] of 102% and a viability, T/C [33] of 105%. For the same molecule, the viability, T/C [34] was 96%, the viability, T/C [35] was 98.9% and the viability, T/C [36] was 103%.
